Test results taken from ChEMBL document CHEMBL4402557, “Nidufexor (LMB763), a Novel FXR Modulator for the Treatment of Nonalcoholic Steatohepatitis” (J Med Chem, 2020).
Calls of active or inactive are those of the source. No cut-off for these calls is given here.

Legend:
[1] = Clearance in dog at 0.5 mg/kg, iv; type: ADME, organism-based, Canis lupus familiaris; conditions: in vivo
[2] = Half life in Wistar rat at 30 mg/kg, po; type: ADME, organism-based; conditions: in vivo
Rattus norvegicus = assay: In-vivo agonist activity at FXR in orally dosed Han Wistar rat assessed as upregulation of BSEP mRNA level in liver administered via oral gavage once daily for 14 days measured post last dose by qRT-PCR analysis; type: functional, organism-based
Mus musculus [3] = assay: Anti Steato-hepatitic activity in STZ/HFD induced oral dosed C57BL/6J mouse STAM model assessed as reduction in microvesicular fat deposition administered via oral gavage once daily for 3 weeks and measured on 9 week by H and E staining based assay; type: functional, organism-based
[4] = Metabolic stability in rat liver microsomes assessed as hepatic extraction ratio; type: ADME, Microsome; conditions: read-out: ERH
Mus musculus [5] = organism: Mus musculus; assay: Anti Steato-hepatitic activity in C57BL/6J mouse STAM model assessed as change in Map3k13 gene level in liver; type: functional, organism-based
[6] = Half life in Wistar rat at 10 mg/kg, po; type: ADME, organism-based; conditions: in vivo
Glucocorticoid receptor = target: T1, Glucocorticoid receptor (Homo sapiens, UniProt P04150); assay: Agonist activity at GAL4-fused Glucocorticoid receptor (unknown origin) expressed in HEK293T cells incubated for 24 by BrightGlo reagent based assay; type: cell-based
T1 sequence (P04150 whole entry): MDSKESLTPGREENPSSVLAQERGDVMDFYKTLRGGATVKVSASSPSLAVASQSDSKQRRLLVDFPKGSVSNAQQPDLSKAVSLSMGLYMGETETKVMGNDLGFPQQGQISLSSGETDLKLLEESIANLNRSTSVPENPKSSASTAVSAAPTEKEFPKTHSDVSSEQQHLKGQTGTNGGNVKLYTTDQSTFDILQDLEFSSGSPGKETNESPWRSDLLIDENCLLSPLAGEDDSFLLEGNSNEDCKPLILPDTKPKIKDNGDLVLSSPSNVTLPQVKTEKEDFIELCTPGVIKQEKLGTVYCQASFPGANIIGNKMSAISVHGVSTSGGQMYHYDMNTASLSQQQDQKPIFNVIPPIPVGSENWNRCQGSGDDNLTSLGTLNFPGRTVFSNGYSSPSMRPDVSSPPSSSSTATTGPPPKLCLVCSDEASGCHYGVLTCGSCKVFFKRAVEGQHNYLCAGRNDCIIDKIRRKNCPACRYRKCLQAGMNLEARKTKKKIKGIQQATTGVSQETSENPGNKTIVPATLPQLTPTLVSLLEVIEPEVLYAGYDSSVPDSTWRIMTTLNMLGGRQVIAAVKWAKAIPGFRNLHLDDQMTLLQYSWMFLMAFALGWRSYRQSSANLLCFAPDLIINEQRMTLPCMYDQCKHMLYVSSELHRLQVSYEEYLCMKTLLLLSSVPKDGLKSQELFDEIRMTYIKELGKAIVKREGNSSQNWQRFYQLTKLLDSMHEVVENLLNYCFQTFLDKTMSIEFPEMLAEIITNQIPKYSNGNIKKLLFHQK

[7] = Cmax in Wistar rat at 30 mg/kg, po; type: ADME, organism-based; set-up: dose 30 mg/kg, route oral; conditions: in vivo
Androgen receptor = target: T2, Androgen receptor (Homo sapiens, UniProt P10275); assay: Agonist activity at androgen receptor (unknown origin) incubated for 2 hrs by TR-FRET assay
T2 sequence (P10275 whole entry): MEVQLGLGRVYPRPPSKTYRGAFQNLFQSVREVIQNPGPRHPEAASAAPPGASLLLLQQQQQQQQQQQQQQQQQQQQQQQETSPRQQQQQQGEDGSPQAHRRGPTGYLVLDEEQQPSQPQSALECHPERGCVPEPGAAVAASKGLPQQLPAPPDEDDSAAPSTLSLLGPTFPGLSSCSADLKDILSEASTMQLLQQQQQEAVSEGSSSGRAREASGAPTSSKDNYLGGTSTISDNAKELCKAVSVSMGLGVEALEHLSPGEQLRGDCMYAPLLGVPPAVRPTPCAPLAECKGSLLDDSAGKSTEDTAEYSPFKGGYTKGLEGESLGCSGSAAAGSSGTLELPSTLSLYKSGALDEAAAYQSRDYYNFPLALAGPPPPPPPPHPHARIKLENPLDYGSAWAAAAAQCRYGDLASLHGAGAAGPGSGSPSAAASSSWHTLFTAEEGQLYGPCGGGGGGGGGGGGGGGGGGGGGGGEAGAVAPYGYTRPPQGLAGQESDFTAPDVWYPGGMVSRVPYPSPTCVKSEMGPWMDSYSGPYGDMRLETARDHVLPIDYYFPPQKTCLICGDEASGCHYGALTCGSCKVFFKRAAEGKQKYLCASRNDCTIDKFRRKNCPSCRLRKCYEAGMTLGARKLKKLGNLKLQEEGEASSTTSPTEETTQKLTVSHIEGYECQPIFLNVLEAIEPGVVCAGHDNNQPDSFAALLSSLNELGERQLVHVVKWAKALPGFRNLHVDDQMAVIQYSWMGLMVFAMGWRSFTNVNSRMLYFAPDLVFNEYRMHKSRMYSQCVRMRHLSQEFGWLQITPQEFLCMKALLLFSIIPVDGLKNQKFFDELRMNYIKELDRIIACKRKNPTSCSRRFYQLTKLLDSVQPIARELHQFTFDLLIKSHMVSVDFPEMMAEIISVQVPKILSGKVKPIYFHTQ

[8] = Oral bioavailability in Wistar rat at 30 mg/kg; type: ADME, organism-based; conditions: in vivo
[9] = AUC in Wistar rat plasma at 10 mg/kg, po; type: ADME, organism-based
[10] = AUC in Wistar rat at 100 mg/kg, po; type: ADME, organism-based; conditions: in vivo
[11] = Cmax in Wistar rat at 3 mg/kg, po; type: ADME, organism-based; set-up: dose 3 mg/kg, route oral; conditions: in vivo

- clearance [1]: 3.6 mL/min/kg
- half-life [2]: 6.3 h
- hepatic extraction ratio [4]: < 0.18
- half-life [6]: 5.7 h
- EC50 (Glucocorticoid receptor): > 10 µM
- Cmax [7]: 28.1 µM
- EC50 (Androgen receptor): > 30 µM
- bioavailability [8]: 52%
- AUC [9]: 24.5 µM·h
- AUC [10]: 399 µM·h
- Cmax [11]: 4.5 µM
Structure (SMILES): Cn1nc(C(=O)N(Cc2ccccc2)Cc2ccc(C(=O)O)cc2)c2c1-c1cc(Cl)ccc1OC2 [NIDUFEXOR]
- Activity (Rattus norvegicus): Dose-dependent effect
- Activity (Mus musculus [3]): Dose-dependent effect
- Activity (Mus musculus [5]): Active
